Reference: US12005068B2, “Formulation including doxycycline hyclate and method for administering the same” (priority 2017, dated 2024)

Legend:
Type in all cases: in vivo
[1] = system: chemotherapy induced peripheral neuropathy; assay: Example 1: human subject with chemotherapy induced peripheral neuropathy, Treatment-Induced Neuropathy Assessment Scale and reported symptoms; details: patient history before the disclosed treatment
Text: A patient complained of a tingling and burning sensation in their hands and feet that began shortly after they commenced chemotherapy. The patient had been previously diagnosed with primary peritoneal cervical cancer. While it was recommended that the patient undergo chemotherapy treatment for 18 weeks, the patient was unable to tolerate the side effects of the treatment after 11 weeks and ceased the treatment sessions. […] The patient experienced the same side effects again and sought help to alleviate their pain.
Upon physical examination by a practicing physician their gait was abnormal. Some of their symptoms included: • (a) The patient had poor coordination. In particular, when the patient would stop looking at their feet, they would lose all sense of proprioception (i.e., their sense of the relative position of the body and strength of effort being employed in movement) was lost. The patient thus used a cane as they had trouble with stability. • (b) The patient's sense of touch was poor. For example, the patient could not distinguish different textures as everything felt like silk to them. • (c) The patient's sense of temperature was also poor. […] • (d) There was an altered temperature sensation. They were hyper sensitized to slight changes in temperature. […] They could not write, hold a phone, pick up change, buckle themself in a seat, or dress themself. In the absence of a stimulus, the patient felt the tingling, burning sensations in their hands and feet. • (e) The patient's sensations would be exacerbated upon the introduction of a non-noxious stimulus.
Based on the above, the patient was diagnosed with chemotherapy induced peripheral neuropathy. […] Some of the attempted medications were PERCOSET, GABAPENTIN, TYLENOL, ADVIL, LIDOCAINE, and CAPSAICIN. Numerous other over-the-counter medications were tried. Other attempted treatments included acupuncture.
In an embodiment of the presently disclosed treatment, a formulation of topical doxycycline hyclate suspension at a concentration of 400 mg/g. The prescribed administration included applying the formulation to the patient's hands and feet 2-3 times daily as needed for the pain. Each dose was 2 ml per foot, per hand, and per leg. Over the course of at least 18 months, the patient used the formulation every day during the remainder of the patient's second regiment of chemotherapy. […] In particular, immediately after applying the topical doxycycline for the very first time, the patient found relief in the tingling, burning feeling in the hands and feet. […] They were able to pick up change.
Quantitatively, data was collected for at least 7 months on a “Treatment-Induced Neuropathy Assessment Scale” as shown in Table 1 below. The scale was proven in the scientific literature to be an effective tool to quantify change in symptoms presented by patients with peripheral neuropathy. The patient needed to assess their pain from a scale of 0 (non-existent) to 10 (unbearable pain). Throughout all the categories, the patient's pain went down. In some categories the pain was diminished altogether.

[2] = system: idiopathic neuropathy; assay: Example 7: human subject with idiopathic neuropathy; details: patient statement
Procedure: The following in vivo study of a human subject diagnosed with idiopathic neuropathy.
A patient presented with idiopathic ice-cold burning sensations on the lateral surface area of the right shin/calf. The pain began 6 years ago and has stayed constant.
The patient then began a new treatment course to alleviate the pain. This treatment is the presently disclosed novel formulation of topical doxycycline hyclate suspension at a concentration of 400 mg/g. Each dose was 4m1 to the affected right shin. They applied it topically to the affected areas when they were feeling the pain. They began applying it only once a day for 2 weeks before bed.

[3] = system: multiple sclerosis; assay: Example 5: human subject with multiple sclerosis, leg pain triggered by AVONEX injection; details: patient history
Text: The following in vivo study of a human subject diagnosed with multiple sclerosis.
A patient presented with excruciating pain in their quadriceps that extended down to their calves. The pain was triggered by the weekly injection of AVONEX (interferon beta-1a) the patient was taking in order to manage their multiple sclerosis. They could not sleep due to the pain.
The patient then began a new treatment course to alleviate the pain. This treatment is a novel formulation of topical doxycycline hyclate suspension at a concentration of 400 mg/g. Each dose was 4 ml per leg and 2 ml per arm/hands. They applied it to the affected areas when they were feeling the pain. They also applied it at work when they would get pains from handling complex machines such as nail guns.

[4] = system: osteoarthritis; assay: Example 6: human subject with osteoarthritis in both knees; details: patient history; side effects put them in a worse state
Procedure: The following in vivo study of a human subject diagnosed with osteoarthritis.
A patient presented with osteoarthritis in both knees due to a previous trauma years ago in their life. Their knees are in a constant state of pain and inflammation. They also have arthritis in the toe joints and shoulder.
The patient then began a new treatment course to alleviate the pain. This treatment is a novel formulation of topical doxycycline hyclate suspension at a concentration of 400 mg/g. Each dose was 2 ml per knee. They applied it to the affected areas when they were feeling the pain. By the next day the patient feels minimal pain. They apply 1.5 ml of the topical doxycycline suspension daily for a week at night. […] undergoes this treatment once every 4-6 months.

[5] = system: osteoarthritis of the left knee; assay: Example 2: human subject with osteoarthritis of the left knee; details: patient history; once relieved pain for 3 months
Text: The following in vivo study of a human subject diagnosed with osteoarthritis of the left knee.
A patient presented with complaints of left knee pain. The patient had been previously diagnosed with progressive osteoarthritis of the left knee. They had undergone two knee surgeries, but the pain came back within a few months. […] Their specialist said that the they were too young and too overweight for a full knee replacement surgery so they must rely on narcotic pain medications and hydrocortisone shots until they are a good candidate for the replacement surgery.
The patient then began the currently disclosed treatment course to alleviate the pain from their osteoarthritis. As already discussed, the currently disclosed treatment is a topical doxycycline hyclate suspension at a concentration of 400 mg/g. They applied it to the knee twice a day. Each dose was approximately 4 ml per knee spread topically over the knee. Preferably, an application covers the affected area with a thin layer of the suspension. One application was before bedtime and the other was in the morning before going to work. The patient has been using it every day for the past month.

SMILES | effect of previously attempted medications on the patient's symptoms [1] | also measured
CC(C)Cc1ccc(C(C)C(=O)O)cc1 (stereo not shown) [ADVIL, ibuprofen] | failed to address the patient's symptoms | 
COc1cc(CNC(=O)CCCC/C=C/C(C)C)ccc1O [CAPSAICIN] | failed to address the patient's symptoms | 
NCC1(CC(=O)O)CCCCC1 [GABAPENTIN] | failed to address the patient's symptoms | 
CC(C)Cc1ccc(C(C)C(=O)O)cc1 (stereo not shown) [Ibuprofen] |  | effect of previous medications on pain [2]: did not help
CCN(CC)CC(=O)Nc1c(C)cccc1C [LIDOCAINE] | failed to address the patient's symptoms | 
CC(C)Cc1ccc(C(C)C(=O)O)cc1 (stereo not shown) [MOTRIN, ibuprogen] |  | effect of previously taken medications on pain [3]: not as effective as they hoped
CC(=O)Nc1ccc(O)cc1 [TYLENOL, acetaminophen] | failed to address the patient's symptoms | effect of previously tried medications on pain [4]: did not help manage the pain; effect of previously taken medications on pain [3]: not as effective as they hoped
C[C@]12CCC(=O)C=C1CC[C@@H]1[C@@H]2[C@@H](O)C[C@@]2(C)[C@H]1CC[C@]2(O)C(=O)CO [hydrocortisone] |  | duration of pain relief after shots [5]: 3 weeks
